Assay results: EP4563571A1, “PRMT5 INHIBITORS” (Beijing Earthwise Technology Co., Ltd., priority 2022, dated 2024)

What follows are compounds tested on HCT116^MTAP Deletion cells (assay: Anti-proliferation assay on cells (Cell-Titer Glo, 10 days)). Conditions: HCT116^MTAP Deletion cells, 10 days incubation, CTG readout; read-out: HCT116^MTAP Deletion GI50.
Format: cell-based
Procedure: HCT116^MTAP Deletion cells were from Pharmaron (China); HCT116 cells were from ATCC; McCoy's 5A medium was purchased from Invitrogen (USA); penicillin-streptomycin and fetal bovine serum were purchased from Gibco (USA); a 384-well plate was purchased from PerkinElmer (USA); and Cell-Titer Glo reagent was purchased from Promega (USA).
Compound dissolution: All the compounds were dissolved in dimethyl sulfoxide (DMSO) and then stored. The compounds were stored at room temperature in a dry condition for 3 months for short term storage or at -20 °C for long term storage.
Cell culture and passaging
The cells were cultured strictly in accordance with ATCC requirements. The cell culture medium (McCoy's 5A medium + 10% fetal bovine serum + 1% penicillin + streptomycin) was transferred to a 15 mL centrifuge tube and centrifuged at 1000 rpm for 5 min. The supernatant was removed. The cells were resuspended with complete culture medium, inoculated into a culture dish at the required density, and cultured in an incubator at 37 °C, 95% humid air, and 5% carbon dioxide. The culture medium was replenished or the cells were passaged every 2-3 days depending on the cell growth condition.
Cell proliferation activity assay
When the confluency of cells in the culture dish reached about 90%, the cells were washed twice with PBS, and then treated with trypsin to become single cells. The cells were counted, and 40µl of the cells was inoculated into each well of a 384-well plate (50 cells/well). The plate was equilibrated at 37 °C and 5% carbon dioxide for 10 to 15 minutes. The compounds were injected into the 384-well plate using Echo550, and positive control and negative control (0.1% DMSO) were set up. Each compound was subjected to a 3-fold dilution, resulting in 10 concentration gradients, in duplicate, and the content of DMSO was 0.1%. The 384-well plate was incubated in a cell culture incubator for 10 days.
Then, 40 µl of cell proliferation assay reagent (CTG) was added to the 384-well plate, and the plate was shaken to mix well. Then, the 384-well plate was incubated at 37 °C and 5% carbon dioxide in the dark for 30 minutes. The data were read using the Envision multifunctional microplate reader. […] According to the different drug concentrations and their corresponding inhibition rates, the GI50 curve was drawn using GraphPad 8.0 software. The data were analyzed, and the final IC50 value was obtained.

Structure (SMILES)	GI50 [nM]
CCC(C)N(Cc1ccc(C(F)(F)F)cn1)C(=O)C(=O)Nc1cnc(N)c2c1cnn2C (racemic) [Example 46-P1]	10 to 100
CN(C(=O)C(=O)Nc1cnc(N)c2c1cnn2C)C1COCc2c(F)cc(Cl)cc21 (racemic) [compound 155]	10 to 100
Cc1cc(NC(=O)C(=O)N(C)C2COCc3cc(C4=CCOCC4)ccc32)cnc1N (racemic) [compound 162]	100 to 1000
CN(C(=O)C(=O)Nc1cnc(N)c2c1cnn2C)C1COCc2c1ccc(Cl)c2Cl (racemic) [compound 168]	< 10
CN(C(=O)C(=O)Nc1cnc(N)c2c1cnn2C)C1COc2cc(F)c(F)cc21 (racemic) [compound 172]	10 to 100
CN(C(=O)C(=O)Nc1cnc(N)c2c1cnn2C)C1COCc2cc(C3=CCC(F)(F)CC3)ccc21 (racemic) [compound 174]	< 10
CN(C(=O)C(=O)Nc1cnc(N)c2c1cnn2C)C1COc2cc(Br)ccc21 (racemic) [compound 180]	< 10
Cc1ncc(-c2ccc3c(c2)COCC3N(C)C(=O)C(=O)Nc2cnc(N)c3c2cnn3C)s1 (racemic) [compound 181]	< 10
CN(C(=O)C(=O)Nc1cnc(N)c2c1cnn2C)C1COCc2cc(Br)ccc21 (racemic) [compound 182]	< 10
CN(C(=O)C(=O)Nc1cnc(N)c2c1cnn2C)C1COc2cc(Cl)c(Cl)cc21 (racemic) [compound 186]	< 10
CN(C(=O)C(=O)Nc1cnc(N)c2c1cnn2C)C1COc2cc(-c3ccnn3C)ccc21 (racemic) [compound 192]	< 10
Cc1ncc(-c2ccc3c(n2)COCC3N(C)C(=O)C(=O)Nc2cnc(N)c3c2cnn3C)s1 (racemic) [compound 209]	< 10
CN(C(=O)C(=O)Nc1cnc(N)c2c1cnn2C)C1COCc2cc(-c3cnn(C4CC4)c3)ccc21 (racemic) [compound 223]	< 10
CN(C(=O)C(=O)Nc1cnc(N)c2c1cnn2C)C1COCc2cc(-c3cnn(C(F)(F)F)c3)ccc21 (racemic) [compound 231]	< 10
CCC(C)N(Cc1ccc(C(F)(F)F)cn1)C(=O)C(=O)Nc1cnc(OC)c(C(N)=O)c1 (single isomer, unassigned) [Example 5-P1]	10 to 100
CCC(C)N(Cc1ccc(C(F)(F)F)cn1)C(=O)C(=O)Nc1cnc(OC)c(C(N)=O)c1 (single isomer, unassigned) [Example 5-P2]	10 to 100
Cc1cc(NC(=O)C(=O)N(Cc2ccc(C(F)(F)F)cn2)C2CCCOC2)cnc1N (single isomer, unassigned) [Example 14-P1]	100 to 1000
Cc1cc(NC(=O)C(=O)N(Cc2ccc(C(F)(F)F)cn2)C2CCCOC2)cnc1N (single isomer, unassigned) [Example 14-P2]	100 to 1000
Cc1cc(NC(=O)C(=O)N(Cc2ccc(C(F)(F)F)cn2)C(C)c2cscn2)cnc1N (single isomer, unassigned) [Example 19-P1]	10 to 100
Cc1cc(NC(=O)C(=O)N(Cc2ccc(C(F)(F)F)cn2)C(C)c2cscn2)cnc1N (single isomer, unassigned) [Example 19-P2]	10 to 100

Structure (SMILES)	GI50 [nM]
CCC(C)N(Cc1ccc(C(F)(F)F)cn1)C(=O)C(=O)Nc1cnc(N)c(C)c1 (single isomer, unassigned) [Example 45-P1]	10 to 100
CCC(C)N(Cc1ccc(C(F)(F)F)cn1)C(=O)C(=O)Nc1cnc(N)c(C)c1 (single isomer, unassigned) [Example 45-P2]	10 to 100
CC1OCc2c(NC(=O)C(=O)N(C)C3COCc4cc(C(F)(F)F)ccc43)cnc(N)c21 (single isomer, unassigned) [Example 146-P1]	100 to 1000
CC1OCc2c(NC(=O)C(=O)N(C)C3COCc4cc(C(F)(F)F)ccc43)cnc(N)c21 (single isomer, unassigned) [Example 146-P2]	10 to 100
CN(C(=O)C(=O)Nc1cnc(N)c2c1cnn2C)C1COCc2nc(C(F)(F)F)ccc21 (single isomer, unassigned) [Example 152-P1]	100 to 1000
CN(C(=O)C(=O)Nc1cnc(N)c2c1cnn2C)C1COc2cc(C3=CCOCC3)ccc21 (single isomer, unassigned) [Example 153-P1]	< 10
CN(C(=O)C(=O)Nc1cnc(N)c2c1cnn2C)C1COc2cc(C3=CCOCC3)ccc21 (single isomer, unassigned) [Example 153-P2]	100 to 1000
Cc1cc(NC(=O)C(=O)N(C)Cc2ccc(C(F)(F)F)cn2)cnc1N [Example 3]	1000 to 10000
Cn1ncc2c(NC(=O)C(=O)N(Cc3ccc(C(F)(F)F)cn3)CC3CCC3)cnc(N)c21 [Example 4]	10 to 100
Cc1cc(/C=C/C(=O)N(Cc2ccc(C(F)(F)F)cn2)[C@H](C)c2ncccn2)cnc1N [Example 6]	> 10000
Cc1cc(C2CC2C(=O)N(Cc2ccc(C(F)(F)F)cn2)[C@H](C)c2ncccn2)cnc1N (stereo partly drawn) [Example 7]	> 10000
CCC(C)N(Cc1ccc(C(F)(F)F)cn1)C(=O)C(=O)Nc1cnc(N)c2c1COC2C (stereo not drawn) [Example 10]	10 to 100
Cc1cc(NC(=O)C(=O)N(Cc2ccc(C(F)(F)F)cn2)C2CCCC2)cnc1N [Example 11]	100 to 1000
Cc1cc(NC(=O)C(=O)N(Cc2ccc(C(F)(F)F)cn2)C2CC2)cnc1N [Example 12]	100 to 1000
Cc1cc(NC(=O)C(=O)N(Cc2ccc(C(F)(F)F)cn2)C2CCC2)cnc1N [Example 13]	100 to 1000
Cc1cc(NC(=O)C(=O)N(Cc2ccc(C(F)(F)F)cn2)CC2CC2)cnc1N [Example 15]	10 to 100
Cc1cc(NC(=O)C(=O)N(Cc2ccc(C(F)(F)F)cn2)CC2CCC2)cnc1N [Example 16]	10 to 100
Cc1cc(NC(=O)C(=O)N(Cc2ccc(C(F)(F)F)cn2)CC2CCCC2)cnc1N [Example 17]	10 to 100
Cc1cc(NC(=O)C(=O)N(Cc2ccc(C(F)(F)F)cn2)c2cnn(C)c2)cnc1N [Example 18]	100 to 1000
C[C@H](c1ncccn1)N(Cc1ccc(C(F)(F)F)cn1)C(=O)C(=O)Nc1cnc(N)c(F)c1 [Example 22]	1000 to 10000

Structure (SMILES)	GI50 [nM]
C[C@H](c1ncccn1)N(Cc1ccc(C(F)(F)F)cn1)C(=O)C(=O)Nc1cnc(N)c(Cl)c1 [Example 23]	1000 to 10000
C[C@H](c1ncccn1)N(Cc1ccc(C(F)(F)F)cn1)C(=O)C(=O)Nc1cnc(N)c(Br)c1 [Example 24]	100 to 1000
COc1ncc(NC(=O)C(=O)N(Cc2ccc(C(F)(F)F)cn2)[C@H](C)c2ncccn2)cc1C(N)=O [Example 25]	10 to 100
Cc1cc(N)ncc1NC(=O)C(=O)N(Cc1ccc(C(F)(F)F)cn1)[C@H](C)c1ncccn1 [Example 26]	100 to 1000
Cc1nc(NC(=O)C(=O)N(Cc2ccc(C(F)(F)F)cn2)[C@H](C)c2ncccn2)cnc1N [Example 27]	100 to 1000
Cc1cc(NC(=O)C(=O)N(Cc2ccc(C#N)cn2)[C@H](C)c2ncccn2)cnc1N [Example 28]	1000 to 10000
Cc1cc(NC(=O)C(=O)N(Cc2ccc(N3CCC(F)(F)C3)cn2)[C@H](C)c2ncccn2)cnc1N [Example 29]	100 to 1000
C[C@H](c1ncccn1)N(Cc1ccc(C(F)(F)F)cn1)C(=O)C(=O)Nc1cnc(N)c2c1cnn2C [Example 30]	10 to 100
C[C@H](c1ncccn1)N(Cc1ccc(C(F)(F)F)cn1)C(=O)C(=O)Nc1cnc(N)c2c1CCCC2 [Example 31]	100 to 1000
C[C@H](c1ncccn1)N(Cc1ccc(C(F)(F)F)cn1)C(=O)C(=O)Nc1cnc(N)c2ccncc12 [Example 32]	100 to 1000
CCOc1ccc(CN(C(=O)C(=O)Nc2cnc(N)c(C)c2)[C@H](C)c2ncccn2)nn1 [Example 35]	10 to 100
Cc1cc(NC(=O)C(=O)N(Cc2ccc(C(F)(F)F)cn2)[C@H](C)C2CC2)cnc1N [Example 36]	10 to 100
C[C@H](c1ncccn1)N(Cc1ccc(C(F)(F)F)cn1)C(=O)C(=O)Nc1cnc(N)c2cncn12 [Example 38]	> 10000
C[C@H](C1CC1)N(Cc1ccc(C(F)(F)F)cn1)C(=O)C(=O)Nc1cnc(N)c2c1COC2 [Example 39]	100 to 1000
Nc1ncc(NC(=O)C(=O)N(Cc2ccc(C(F)(F)F)cn2)CC2CC2)c2c1COC2 [Example 40]	100 to 1000
Nc1ncc(NC(=O)C(=O)N(Cc2ccc(C(F)(F)F)cn2)CC2CCC2)c2c1COC2 [Example 41]	100 to 1000
Cc1cc(NC(=O)C(=O)N(Cc2ccc(C3=CCOCC3)nn2)[C@H](C)c2ncccn2)cnc1N [Example 42]	100 to 1000
Cn1ncc2c(NC(=O)C(=O)N(Cc3ccc(C(F)(F)F)cn3)CC3CC3)cnc(N)c21 [Example 43]	< 10
CC(c1cscn1)N(Cc1ccc(C(F)(F)F)cn1)C(=O)C(=O)Nc1cnc(N)c2c1cnn2C (stereo not drawn) [Example 44]	10 to 100
CCC(C)N(Cc1ccc(C(F)(F)F)cn1)C(=O)C(=O)Nc1cnc(N)c2c1cnn2C (stereo not drawn) [Example 46-P2]	10 to 100
